Measurements: BindingDB's records for doi:10.7270/Q2TX3CTT (Broad Institute, 2010)

Molecular target: Glycogen synthase kinase-3 beta (Homo sapiens, UniProt P49841)
Assay: concentration-response blocking of human GSK3B – biochemical, luminescence, cell-free homogeneous, retest, dose response (AID 434954)

Sequence of Glycogen synthase kinase-3 beta (P49841 whole entry): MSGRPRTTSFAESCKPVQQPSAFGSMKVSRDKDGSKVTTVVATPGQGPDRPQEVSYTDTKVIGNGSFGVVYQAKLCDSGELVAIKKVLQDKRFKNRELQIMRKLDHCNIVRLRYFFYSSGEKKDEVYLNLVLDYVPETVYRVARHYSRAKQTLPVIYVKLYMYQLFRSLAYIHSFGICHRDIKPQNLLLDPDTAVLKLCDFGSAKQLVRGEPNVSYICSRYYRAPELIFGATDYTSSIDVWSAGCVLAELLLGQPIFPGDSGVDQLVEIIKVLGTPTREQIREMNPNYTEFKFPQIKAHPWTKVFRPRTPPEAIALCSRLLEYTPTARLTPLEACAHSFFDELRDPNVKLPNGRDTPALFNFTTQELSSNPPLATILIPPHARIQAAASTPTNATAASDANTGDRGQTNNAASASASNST

| SMILES | EC50 |
| --- | --- |
| O=C(COc1ccccc1[N+](=O)[O-])NN=Cc1ccc(OC(=O)c2ccco2)cc1 [4-((E)-{2-[2-(2-nitrophenoxy)acetyl]hydrazono}methyl)phenyl 2-furoate] | 14.7 µM |
| CC(C(=O)NCc1ccco1)n1cc([N+](=O)[O-])cn1 (centres undefined) [N-(2-furylmethyl)-2-(4-nitro-1H-pyrazol-1-yl)propanamide] | > 300 µM |
| N#CC1=C2SCN(Cc3ccccc3)CN2C(=O)CC1c1cccs1 (centres undefined) | 7.88 µM |
| COc1ccc(OC)c(Nc2nc(NCCC(C)C)nc(N)c2[N+](=O)[O-])c1 [4-N-(2,5-dimethoxyphenyl)-2-N-(3-methylbutyl)-5-nitropyrimidine-2,4,6-triamine] | > 300 µM |
| CCCCC(=O)Nc1ccc(C(=O)NNC(=O)CCCOc2ccc(Cl)cc2Cl)cc1 [N-[4-[[[4-(2,4-dichlorophenoxy)-1-oxobutyl]hydrazo]-oxomethyl]phenyl]pentanamide] | > 300 µM |
| CCC(=O)Nc1sc2c(c1C(N)=O)CCN(Cc1ccccc1)C2 | > 300 µM |
| Nc1nonc1-n1nnc(C(=O)NN=Cc2ccccc2O)c1CN1CCCC1 [1-(4-amino-1,2,5-oxadiazol-3-yl)-N'-[(E)-(6-oxo-1-cyclohexa-2,4-dienylidene)methyl]-5-(1-pyrrolidinylmethyl)-4-triazolecarbohydrazide] | 24.6 µM |
| Cc1ccc2c(C)c(C(=O)Nc3nnc(C)s3)oc2c1 [3,6-dimethyl-N-(5-methyl-1,3,4-thiadiazol-2-yl)-1-benzofuran-2-carboxamide] | > 300 µM |
| COC(=O)c1cc(S(=O)(=O)N2CCCC(C)C2)c[nH]1 (centres undefined) | > 300 µM |
| CCOC(=O)c1cnc2ccc(OC)cc2c1Nc1ccc(N2CCN(C)CC2)cc1 [6-methoxy-4-[4-(4-methyl-1-piperazinyl)anilino]-3-quinolinecarboxylic acid ethyl ester] | 5.26 µM |
| COc1ccc(-c2nn(-c3ccccc3)cc2N)cc1 [3-(4-methoxyphenyl)-1-phenylpyrazol-4-amine] | > 300 µM |
| CCOC(=O)CC(=O)CSc1ccc2nnc(-c3ccc(C)cc3)n2n1 [3-keto-4-[[3-(p-tolyl)-[1,2,4]triazolo[4,3-b]pyridazin-6-yl]thio]butyric acid ethyl ester] | 14.3 µM |
| CCC(=NNC(=S)Nc1cccc(C)c1)c1ccccc1 | > 300 µM |
| CC1=Nc2ncnn2C(c2ccco2)C1C(=O)OCc1ccccc1 (centres undefined) [benzyl 7-(furan-2-yl)-5-methyl-1,7-dihydro-[1,2,4]triazolo[1,5-a]pyrimidine-6-carboxylate] | 40.7 µM |
| CCC(Sc1ccc2nnc(-c3ccc(F)cc3)n2n1)C(=O)O (centres undefined) [2-[[3-(4-fluorophenyl)-[1,2,4]triazolo[4,3-b]pyridazin-6-yl]thio]butanoic acid] | 29.5 µM |
| O=C(Nc1ccccc1)Nc1ccccn1 [1-phenyl-3-pyridin-2-ylurea] | > 300 µM |
| CN(CC(=O)OCC(=O)Nc1ccccc1)S(=O)(=O)c1ccc(Cl)cc1 [(2-anilino-2-oxoethyl) 2-[(4-chlorophenyl)sulfonyl-methylamino]acetate] | > 300 µM |
| COCc1c(C(=O)Nc2ccc(Cl)cc2F)oc2ccccc12 [N-(4-chloro-2-fluorophenyl)-3-(methoxymethyl)-2-benzofurancarboxamide] | > 300 µM |
| Cc1ccc(-c2nn(-c3ccccc3)cc2CO)cc1 | > 300 µM |
| Cc1ccc(-c2nn(-c3ccccc3)cc2C=Nn2c(-c3cccs3)n[nH]c2=S)cc1 [4-({[3-(4-methylphenyl)-1-phenyl-1H-pyrazol-4-yl]methylene}amino)-5-(2-thienyl)-2,4-dihydro-3H-1,2,4-triazole-3-thione] | > 300 µM |
| Cc1ccc(NC(=O)CSc2nccn2C)cc1F [N-(3-fluoro-4-methylphenyl)-2-[(1-methyl-2-imidazolyl)thio]acetamide] | > 300 µM |
| O=C(Nc1ccc(O)c2c(=O)cc(-c3ccccc3Cl)oc12)c1ccc(F)cc1 [N-[2-(2-chlorophenyl)-5-oxidanyl-4-oxidanylidene-chromen-8-yl]-4-fluoranyl-benzamide] | 13.9 µM |

| SMILES | EC50 |
| --- | --- |
| Cc1ccccc1-c1nnc(SCc2ccccc2F)o1 [2-[(2-fluorobenzyl)thio]-5-(2-methylphenyl)-1,3,4-oxadiazole] | > 300 µM |
| c1ccc(CCNCC2COc3ccccc3O2)cc1 (centres undefined) | > 300 µM |
| c1ccc(-c2nnc(-c3ccncc3)nc2-c2ccccc2)cc1 | > 300 µM |
| C=CCNC(=O)c1ccc(OC)cc1OC | > 300 µM |
| CC[n+]1c(/C=C/N(C)c2ccccc2)sc2ccc(Cl)cc21 [N-[(E)-2-(5-chloro-3-ethyl-1,3-benzothiazol-3-ium-2-yl)ethenyl]-N-methylaniline;perchlorate] | 49.8 µM |
| COc1cc(NC2=CC(=O)CC(C)(C)C2)cc(OC)c1OC [5,5-dimethyl-3-(3,4,5-trimethoxyanilino)-1-cyclohex-2-enone] | > 300 µM |
| COc1ccc(-n2c(Cc3cccn3C)nnc2SCC(=O)NCC2CCCO2)cc1 (centres undefined) [2-[[4-(4-methoxyphenyl)-5-[(1-methylpyrrol-2-yl)methyl]-1,2,4-triazol-3-yl]sulfanyl]-N-(oxolan-2-ylmethyl)acetamide] | > 300 µM |
| CC(C)=CCc1c(O)cc(O)c2c(=O)c3c(CC=C(C)C)c(O)ccc3oc12 [2,6,8-trihydroxy-1,5-bis(3-methylbut-2-enyl)xanthen-9-one] | > 300 µM |
| CN1CCN(c2cc([N+](=O)[O-])ccc2Cl)CC1 | > 300 µM |
| Cc1ccnc(SCCn2c(N3CCOCC3)nc3c2c(=O)[nH]c(=O)n3C)n1 [3-methyl-7-[2-(4-methylpyrimidin-2-yl)sulfanylethyl]-8-morpholin-4-ylpurine-2,6-dione] | > 300 µM |
| Oc1ccc(CN=Nc2ncc(Br)cn2)c(O)c1 | 12.3 µM |
| CCc1nn(CC(=O)NCCN2CCOCC2)c(=O)c2cc3c(OC)cccc3n12 [2-(4-ethyl-9-methoxy-1-oxidanylidene-[1,2,4]triazino[4,5-a]indol-2-yl)-N-(2-morpholin-4-ylethyl)ethanamide] | > 300 µM |
| Cc1ccc(C2c3c([nH]c(=S)[nH]c3=O)N=C3CC(C)(C)CC(=O)C32)cc1 (centres undefined) [8,8-dimethyl-5-(4-methylphenyl)-2-sulfanylidene-5,7,9,10-tetrahydro-1H-pyrimido[4,5-b]quinoline-4,6-dione] | > 300 µM |
| O=c1cc(-c2ccccc2Cl)oc2c(NS(=O)(=O)c3ccccc3C(F)(F)F)ccc(O)c12 | > 300 µM |
| COc1ccc(COC(=O)c2cccc(S(=O)(=O)N3CCN(C(C)=O)CC3)c2)cc1 [(4-methoxyphenyl)methyl 3-(4-acetylpiperazin-1-yl)sulfonylbenzoate] | > 300 µM |
| CCOC(=O)c1nnn(-c2nonc2N)c1-c1ccc(OCC)cc1 [1-(4-amino-1,2,5-oxadiazol-3-yl)-5-(4-ethoxyphenyl)-4-triazolecarboxylic acid ethyl ester] | 20 µM |
| CN1CCN(c2ccc([N+](=O)[O-])cc2Cl)CC1 [SMR000283168] | > 300 µM |
| CN1CCN(c2nc(-c3ccccc3)nc(-c3ccccc3)c2C#N)CC1 [4-(4-methylpiperazin-1-yl)-2,6-diphenyl-pyrimidine-5-carbonitrile] | > 300 µM |
| COc1ccc(CN(CC(=O)NCc2ccccc2)C(=O)CCC(=O)Nc2nccs2)cc1 | > 300 µM |
| COCCCNc1nc(N)c([N+](=O)[O-])c(Nc2ccccc2OC)n1 [4-N-(2-methoxyphenyl)-2-N-(3-methoxypropyl)-5-nitropyrimidine-2,4,6-triamine] | 0.231 µM |
| CCN(CCNC(=O)CN(C)S(=O)(=O)c1cccc2nsnc12)c1ccccc1 | > 300 µM |

The next lines start with the values.

| EC50 | SMILES |
| --- | --- |
| 3.04 µM | O=C1N=C(NCc2ccccc2)SC1=Cc1ccc(O)cc1 [SMR000217101] |
| > 300 µM | CC(C(=O)NCC1CCCO1)n1cc([N+](=O)[O-])cn1 (centres undefined) [SMR000296777] |
| 2.39 µM | CCC(C)Nc1nc(N)c([N+](=O)[O-])c(NC2CCCCC2)n1 (centres undefined) [SMR000540397] |
| 0.186 µM | CN(Cc1c(C(=O)NN=Cc2ccc(O)cc2)nnn1-c1nonc1N)C1CCCCC1 [MLS001142838] |
| > 300 µM | O=C(C1=C[C@@H](c2ccc(C(F)(F)F)cc2)C[C@@H](OCCCCO)O1)N1CCN(Cc2ccccc2)CC1 [SMR000389639] |
| > 300 µM | Cc1ccc(C(=O)Nc2ccccc2C(=O)NCc2ccco2)cc1S(=O)(=O)N1CCCCC1 [SMR000076380] |
| 21.4 µM | Cc1cccc(Nc2nc(N)c([N+](=O)[O-])c(NCc3ccccc3)n2)c1 [MLS000332785] |
| > 300 µM | CCOC(=O)C1C(C)=Nc2ncnn2C1c1cc(OC)ccc1OC (centres undefined) [MLS000112815] |
| > 300 µM | Cc1ccc(N2CC(C(=O)NCCCn3ccnc3)CC2=O)cc1 (centres undefined) [MLS000069041] |
| 61.8 µM | CCOc1cc(C(=O)OCC(=O)Nc2ccc(Cl)cn2)ccc1OCC(=O)N1CCOCC1 [MLS000334350] |
| > 300 µM | O=C(CCCC1=Nc2ccccc2S(=O)(=O)N1)Nc1ccccc1 [MLS001028511] |
| > 300 µM | Cc1cc(CNC(=O)c2cc(COc3c(F)cccc3F)on2)nn1C [MLS000734261] |
| > 300 µM | COC(=O)C1=C(C)N(Cc2ccccc2)C(NCc2ccc(OC)cc2)=N[C@H]1c1cccc(F)c1 [MLS000829932] |
| > 300 µM | CCOc1ccccc1N1CCN(S(=O)(=O)c2cc(C)ccc2OC)CC1 [MLS000703554] |
| > 300 µM | CC(C)N1C(=O)N(c2ccc(Cl)cc2)C(C)(O)CC1(C)C (centres undefined) [SMR000539554] |
| > 300 µM | CC(C)N(C(=O)Cc1ccccc1[N+](=O)[O-])C(C)C [SMR000291889] |
| > 300 µM | CCN(CC)Cc1c(O)ccc2c(=O)c(-c3ccc4c(c3)OCCO4)coc12 [MLS000552107] |
| 2.82 µM | CCSc1ccc2nnc(-c3ccc(F)cc3)n2n1 [SMR000028943] |
| > 300 µM | Cc1nnc2n(-c3ccccc3)c(=O)c3c4c(sc3n12)COC(C)(C)C4 [SMR000038952] |
| 10.4 µM | N#Cc1c(-c2cccs2)cc(-c2cccnc2)nc1N [SMR000043147] |
| > 300 µM | Cc1ccc(C(=O)NN=Cc2ccc(-c3ccc(Cl)c(Cl)c3)o2)cn1 [SMR000431370] |
| > 300 µM | O=C(NCC1COc2ccccc2O1)c1ccccc1 (centres undefined) [SMR000069822] |
| > 300 µM | COc1ccc(C(=O)c2coc3ccc(O)c(CN4CCOCC4)c23)cc1 [MLS000115876] |
| > 300 µM | CCCn1nc(NC(=O)c2cccs2)c2cc3cc(C)ccc3nc21 [SMR000436650] |
| > 300 µM | c1ccc(-c2nc(-c3ccco3)n3ccccc23)cc1 [MLS000392030] |
| 25.4 µM | CC(=NNC(=O)c1nnn(-c2nonc2N)c1CN1CCC(C)CC1)c1cccc(Br)c1 [MLS001075097] |
